How the values were obtained:
[1] = test system: crabgrass; assay: Test C pre-/postemergence test; format: in vivo, Digitaria sanguinalis
Excerpt: (§1) Seeds of plant species selected from blackgrass (Alopecurus myosuroides), downy brome (Bromus tectorum), green foxtail (Setaria viridis), Italian ryegrass (Lolium multiflorum), wheat (Triticum aestivum), wild oat (Avena fatua), catchweed bedstraw (Galium aparine), Russian thistle (Salsola kali), […] (Cynodon dactylon), Surinam grass (Brachiaria decumbens), cocklebur (Xanthium strumarium), corn (Zea mays), crabgrass (Digitaria sanguinalis), woolly cupgrass (Eriochloa villosa), giant foxtail (Setaria faberii), Goosegrass (Eleusin indica), johnsongrass (Sorghum halepense), kochia (Kochia scoparia), lambsquarters (Chenopodium album), morningglory (Ipomoea coccinea), eastern black nightshade (Solanum ptycanthum), yellow nutsedge (Cyperus esculentus), pigweed (Amaranthus retroflexus), common ragweed (Ambrosia elation), soybean (Glycine max), common (oilseed) sunflower (Helianthus annuus), and velvetleaf (Abutilon theophrasti) were planted and treated preemergence with test chemicals formulated in a non-phytotoxic solvent mixture which included a surfactant. At the same time, plants selected from these crop and weed species and also winter barley (Hordeum vulgare), canarygrass (Phalaris minor), and chickweed (Stellaria media) were treated with postemergence applications of some of the test chemicals formulated in the same manner. Plants ranged in height from 2 to 18 cm (1- to 4-leaf stage) for postemergence treatments. […] At time of treatment, test pots were flooded to 3 cm above the soil surface, treated by application of test compounds directly to the paddy water, and then maintained at that water depth for the duration of the test. […] A dash (-) response means no test result.

[2] = test system: morningglory; assay: Test C pre-/postemergence test; format: in vivo, Ipomoea coccinea
Excerpt: as §1

[3] = test system: yellow nutsedge; assay: Test C pre-/postemergence test; format: in vivo, Cyperus esculentus
Excerpt: as §1

[4] = test system: cocklebur; assay: Test C pre-/postemergence test; format: in vivo, Xanthium strumarium
Excerpt: as §1

[5] = test system: woolly cupgrass; assay: Test C pre-/postemergence test; format: in vivo, Eriochloa villosa
Excerpt: as §1

[6] = test system: morningglory; assay: Test A pre-/postemergence greenhouse test; format: in vivo, Ipomoea spp.; conditions: for Morningglory plant response rating: 0 to 100 scale; for Plant response rating, Morningglory: 0 to 100 scale where 0 is no effect and 100 is complete control
Procedure, shortened: (§2)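 Pots of loam–sand soil sown with the test species are sprayed preemergence on the soil surface; emerged seedlings (1–2 leaves, 2–10 cm) are sprayed postemergence at the same time. The vehicle is a non-phytotoxic solvent mixture with surfactant. Injury is scored visually after ~10 d in greenhouse.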

[7] = test system: soybean; assay: Test C pre-/postemergence test; format: in vivo, Glycine max
Excerpt: as §1

[8] = test system: pigweed; assay: Test C pre-/postemergence test; format: in vivo, Amaranthus retroflexus
Excerpt: as §1

[9] = test system: wheat; assay: Test C pre-/postemergence test; format: in vivo, Triticum aestivum
Excerpt: as §1

[10] = test system: umbrella sedge; assay: Test C flooded paddy test; format: in vivo, Cyperus difformis; conditions: Flood
Procedure, shortened: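 Flooded 3 cm over soil; compound into paddy water; depth kept constant. Greenhouse 13–15 d.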

[11] = test system: common (oilseed) sunflower; assay: Test C pre-/postemergence test; format: in vivo, Helianthus annuus
Excerpt: as §1

[12] = test system: Italian ryegrass; assay: Test C pre-/postemergence test; format: in vivo, Lolium multiflorum
Excerpt: as §1

[13] = test system: green foxtail; assay: Test C pre-/postemergence test; format: in vivo, Setaria viridis
Excerpt: as §1

[14] = test system: blackgrass; assay: Test C pre-/postemergence test; format: in vivo, Alopecurus myosuroides
Excerpt: as §1

[15] = test system: corn; assay: Test C pre-/postemergence test; format: in vivo, Zea mays
Excerpt: as §1

[16] = test system: barnyardgrass; assay: Test A pre-/postemergence greenhouse test; format: in vivo, Echinochloa crus-galli; conditions: for Barnyardgrass plant response rating: 0 to 100 scale; for Plant response rating, Barnyardgrass: 0 to 100 scale where 0 is no effect and 100 is complete control
Procedure, shortened: as §2

[17] = 31 g ai/ha, Preemergence, scale 0 to 100
[18] = 62 g ai/ha, preemergence, scale 0 (no effect) to 100 (complete control)
[19] = preemergence, 125 g ai/ha, scale 0 (no effect) to 100 (complete control)
[20] = Postemergence, 500 g ai/ha, 0 is no effect, 100 is complete control
[21] = 31 g ai/ha, scale 0 to 100 (0 no effect, 100 complete control)
[22] = 62 g ai/ha, scale 0 to 100, 0 no effect, 100 complete control, 13 to 15 days
[23] = 125 g ai/ha, scale 0 to 100, 0 no effect, 100 complete control, 13 to 15 days
[24] = Postemergence, 125 g ai/ha, 0 is no effect, 100 is complete control
[25] = Preemergence, 125 g ai/ha, 0 no effect, 100 complete control
[26] = 62 g ai/ha, Preemergence, scale 0 to 100
[27] = 125 g ai/ha, preemergence, scale 0 (no effect) to 100 (complete control)
[28] = Preemergence, 31 g ai/ha, scale 0 to 100 (0 no effect, 100 complete control)
[29] = preemergence, 250 g ai/ha, scale 0 (no effect) to 100 (complete control)

Cn1nc(C(F)(F)F)c(CS(=O)(=O)c2ccc(Cl)c[n+]2[O-])c1OC(F)F [Compound 7]
Crabgrass, Large plant response rating [1, 17]: 100
Crabgrass, Large plant response rating [1, 18]: 100
Plant response rating (0 to 100), Crabgrass, Large ([1]; Preemergence, 250 g ai/ha): 100
Crabgrass, Large plant response rating [1, 19]: 100
Morningglory plant response rating [2, 17]: 0
Morningglory plant response rating [2, 18]: 0
Plant response rating (0 to 100), Morningglory ([2]; Preemergence, 250 g ai/ha): 0
Morningglory plant response rating [2, 19]: 0
Nutsedge, Yellow plant response rating [3, 17]: 0
Nutsedge, Yellow plant response rating [3, 18]: 0
Plant response rating (0 to 100), Nutsedge, Yellow ([3]; Preemergence, 250 g ai/ha): 100
Nutsedge, Yellow plant response rating [3, 19]: 98
Cocklebur plant response rating [4, 17]: 0
Cocklebur plant response rating [4, 18]: 0
Plant response rating (0 to 100), Cocklebur ([4]; Preemergence, 250 g ai/ha): 0
Cocklebur plant response rating [4, 19]: 0
Cupgrass, Woolly plant response rating [5, 17]: 50
Cupgrass, Woolly plant response rating [5, 18]: 70
Plant response rating (0 to 100), Cupgrass, Woolly ([5]; Preemergence, 250 g ai/ha): 100
Cupgrass, Woolly plant response rating [5, 19]: 98
Morningglory plant response rating [6, 20]: 10
Plant response rating, Morningglory ([6]; Preemergence, 500 g ai/ha): 30
Soybean plant response rating [7, 17]: 0
Soybean plant response rating [7, 18]: 0
Plant response rating (0 to 100), Soybean ([7]; Preemergence, 250 g ai/ha): 30
Soybean plant response rating [7, 19]: 0
Pigweed plant response rating [8, 17]: 100
Pigweed plant response rating [8, 18]: 100
Plant response rating (0 to 100), Pigweed ([8]; Preemergence, 250 g ai/ha): 100
Pigweed plant response rating [8, 19]: 100
Wheat plant response rating [9, 18]: 10
Plant response rating (0 to 100), Wheat ([9]; Preemergence, 250 g ai/ha): 30
Wheat plant response rating [9, 19]: 20
Plant response rating, Sedge, Umbrella [10, 21]: 0
Plant response rating, Sedge, Umbrella [10, 22]: 40
Plant response rating, Sedge, Umbrella [10, 23]: 55
Plant response rating, Sedge, Umbrella ([10]; 250 g ai/ha, scale 0 to 100 (0 no effect, 100 complete control)): 60
Sunflower plant response rating [11, 18]: 0
Plant response rating (0 to 100), Sunflower ([11]; Preemergence, 250 g ai/ha): 0
Sunflower plant response rating [11, 19]: 0
Ryegrass, Italian plant response rating [12, 17]: 0
Ryegrass, Italian plant response rating [12, 18]: 40
Plant response rating (0 to 100), Ryegrass, Italian ([12]; Preemergence, 250 g ai/ha): 50
Ryegrass, Italian plant response rating [12, 19]: 50
Foxtail, Green plant response rating [13, 17]: 40
Foxtail, Green plant response rating [13, 18]: 60
Plant response rating (0 to 100), Foxtail, Green ([13]; Preemergence, 250 g ai/ha): 100
Foxtail, Green plant response rating [13, 19]: 80
Blackgrass plant response rating [14, 17]: 70
Blackgrass plant response rating [14, 18]: 70
Plant response rating (0 to 100), Blackgrass ([14]; Preemergence, 250 g ai/ha): 100
Blackgrass plant response rating [14, 19]: 85
Corn plant response rating [15, 17]: 0
Corn plant response rating [15, 18]: 0
Plant response rating (0 to 100), Corn ([15]; Preemergence, 250 g ai/ha): 30
Corn plant response rating [15, 19]: 10
Barnyardgrass plant response rating [16, 24]: 10
Barnyardgrass plant response rating [16, 25]: 90
Plant response rating, Barnyardgrass ([16]; Preemergence, 500 g ai/ha): 90

Cn1nc(C(F)(F)F)c(C[S+]([O-])c2cc(Br)cc[n+]2[O-])c1Cl (racemic) [Compound 35]
Crabgrass, Large plant response rating [1, 26]: 100
Crabgrass, Large plant response rating [1, 27]: 100
Plant response rating, Crabgrass, Large [1, 28]: 85
Crabgrass, Large plant response rating [1, 29]: 100
Morningglory plant response rating [2, 26]: 0
Morningglory plant response rating [2, 27]: 80
Plant response rating, Morningglory [2, 28]: 0
Morningglory plant response rating [2, 29]: 85
Nutsedge, Yellow plant response rating [3, 26]: 60
Nutsedge, Yellow plant response rating [3, 27]: 90
Plant response rating, Nutsedge, Yellow [3, 28]: 0
Nutsedge, Yellow plant response rating [3, 29]: 100
Cocklebur plant response rating [4, 26]: 0
Cocklebur plant response rating [4, 27]: 0
Cocklebur plant response rating [4, 29]: 0
Cupgrass, Woolly plant response rating [5, 26]: 80
Cupgrass, Woolly plant response rating [5, 27]: 85
Plant response rating, Cupgrass, Woolly [5, 28]: 0
Cupgrass, Woolly plant response rating [5, 29]: 100
Morningglory plant response rating [6, 24]: 40
Morningglory plant response rating [6, 20]: 70
Morningglory plant response rating [6, 25]: 50
Plant response rating, Morningglory ([6]; Preemergence, 500 g ai/ha): 80
Soybean plant response rating [7, 26]: 0
Soybean plant response rating [7, 27]: 10
Plant response rating, Soybean [7, 28]: 0
Soybean plant response rating [7, 29]: 60
Pigweed plant response rating [8, 26]: 100
Pigweed plant response rating [8, 27]: 100
Plant response rating, Pigweed [8, 28]: 100
Pigweed plant response rating [8, 29]: 100
Wheat plant response rating [9, 26]: 25
Wheat plant response rating [9, 27]: 25
Plant response rating, Wheat [9, 28]: 0
Wheat plant response rating [9, 29]: 25
Plant response rating, Sedge, Umbrella [10, 21]: 80
Plant response rating, Sedge, Umbrella [10, 22]: 90
Plant response rating, Sedge, Umbrella [10, 23]: 95
Plant response rating, Sedge, Umbrella ([10]; 250 g ai/ha, scale 0 to 100, 0 no effect, 100 complete control, 13 to 15 days): 95
Sunflower plant response rating [11, 26]: 0
Sunflower plant response rating [11, 27]: 0
Plant response rating, Sunflower [11, 28]: 0
Sunflower plant response rating [11, 29]: 30
Ryegrass, Italian plant response rating [12, 26]: 20
Ryegrass, Italian plant response rating [12, 27]: 20
Plant response rating, Ryegrass, Italian [12, 28]: 10
Ryegrass, Italian plant response rating [12, 29]: 20
Foxtail, Green plant response rating [13, 26]: 80
Foxtail, Green plant response rating [13, 27]: 100
Plant response rating, Foxtail, Green [13, 28]: 0
Foxtail, Green plant response rating [13, 29]: 100
Blackgrass plant response rating [14, 26]: 0
Plant response rating, Blackgrass [14, 28]: 0
Blackgrass plant response rating [14, 29]: 50
Corn plant response rating [15, 26]: 10
Corn plant response rating [15, 27]: 30
Plant response rating, Corn [15, 28]: 10
Corn plant response rating [15, 29]: 65
Barnyardgrass plant response rating [16, 24]: 50
Barnyardgrass plant response rating [16, 20]: 80
Barnyardgrass plant response rating [16, 25]: 70
Plant response rating, Barnyardgrass ([16]; Preemergence, 500 g ai/ha): 100

Source: patent publication US20100298141A1, “SUBSTITUTED PYRIDINE N-OXIDE HERBICIDES” (E. I. DU PONT DE NEMOURS AND COMPANY, priority 2007, published 2010)
